From patent EP0207497A2, “Quinolonecarboxylic acid derivative and process for its preparation” (KYORIN PHARMACEUTICAL CO., LTD., priority 1985, dated 1987)
In brackets after ≈: the same amount, converted by molar mass.

Legend:
Type in all cases: cell-based
[1] = test system: Bacillus subtilis PCI 219; assay: Antibacterial spectrum, MIC determination (method of Japan Society of Chemotherapy); conditions: Bacillus subtilis, PCI219
[2] = test system: Staphylococcus aureus 209 P; assay: as above; conditions: Staphylococcus aureus, 209P
S. aureus Smith = assay: as above; conditions: Staphylococcus aureus
[3] = test system: S. aureus IID 670 (Terajima); assay: as above; conditions: Staphylococcus aureus, IID670
S. epidermidis IID 866 = assay: as above; conditions: Staphylococcus epidermidis, IID866
[4] = test system: Streptococcus pyogenes (S-8); assay: as above; conditions: Streptococcus pyogenes
[5] = test system: Escherichia coli NIHJ JC-2; assay: as above; conditions: NIHJJC2; Escherichia coli NIHJ JC-2, Gram -, 10^6 cells/ml
E. coli ATCC 10536 = assay: as above; conditions: Escherichia coli, ATCC10536
E. coli ML 4707 = assay: as above; conditions: Escherichia coli, ML4707
[6] = test system: Proteus vulgaris IFO 3167; assay: as above; conditions: Proteus vulgaris, IFO3167
P. mirabilis IID 994 = assay: as above; conditions: Proteus mirabilis, IID994
[7] = test system: Morganella morganii IID 602; assay: as above; conditions: IID602; Morganella morganii IID 602, Gram -, 10^6 cells/ml
[8] = test system: Klebsiella pneumoniae KY(GN)6445; assay: as above; conditions: Klebsiella pneumoniae
K. pneumoniae 1-220S = assay: as above; conditions: Klebsiella pneumoniae, 1220S
[9] = test system: Citrobacter freundii IID 976; assay: as above; conditions: Citrobacter freundii, IID976
[10] = test system: Serratia marcescens IID 618; assay: as above; conditions: Serratia marcescens, IID618
Shigella sonnei IID 969 = assay: as above; conditions: IID969; Shigella sonnei IID 969, Gram -, 10^6 cells/ml
Protocol: Minimal inhibitory concentrations (MICs) were determined in accordance with the method recommended by Japan Society of Chemotherapy.

[11] = test system: Salmonella enteritidis IID 604; assay: as above; conditions: Salmonella enterica
P. cepacia GIFU 518 = assay: as above; conditions: Burkholderia cepacia, GIFU518
P. maltophilia GIFU 2491 = assay: as above; conditions: Stenotrophomonas maltophilia, GIFU2491
[12] = test system: Yersinia enterocolitica IID 981; assay: as above; conditions: Yersinia enterocolitica, IID981
[13] = test system: Acinetobacter anitratus IID 876; assay: as above; conditions: Acinetobacter calcoaceticus, IID876
[14] = test system: Alcaligenes faecalis 0114002; assay: as above; conditions: Alcaligenes faecalis 0114002, Gram -, 10^6 cells/ml
[15] = test system: Bacteroides fragilis GM 7000; assay: as above; conditions: Bacteroides fragilis, GM7000
B. fragilis 0558 = assay: as above; conditions: Bacteroides fragilis, 0558
B. fragilis 25285 = assay: as above; conditions: Bacteroides fragilis, 25285
B. distasonis 8503 = assay: as above; conditions: Parabacteroides distasonis, 8503
[16] = test system: B. thetaiotaomicron (0661); assay: as above; conditions: Bacteroides thetaiotaomicron
B. vulgatus KYA 29327 = assay: as above; conditions: Phocaeicola vulgatus, KYA29327
[17] = test system: Fusobacterium mortiferum 4249; assay: as above; conditions: Fusobacterium mortiferum, 4249
[18] = test system: Propionibacterium acens 11828; assay: as above; conditions: Propionibacterium, 11828
[19] = test system: Peptococcus magnus KY 017; assay: as above; conditions: Finegoldia magna, KY017
C. perfringens KYA 13123 = assay: microbe, parasite or virus in culture; conditions: Clostridium perfringens, KYA13123
C. ramosum = assay: Antibacterial spectrum, MIC determination (method of Japan Society of Chemotherapy); conditions: Thomasclavelia ramosa
[20] = test system: Peptostreptococcus anaerobius KYA 27337; assay: as above; conditions: Peptostreptococcus anaerobius, KYA27337
Pst. micros UPI 5464-1 = assay: as above; conditions: Parvimonas micra, UPI54641; Pst. micros UPI 5464-1, Gram +, 10^6 cells/ml
[21] = test system: Veillonella parvula KYA 10790; assay: as above; conditions: KYA10790; Veillonella parvula KYA 10790, Gram -, 10^6 cells/ml

Compound O=C(O)c1cn(C2CC2)c2cc(N3CCNCC3)c(F)cc2c1=O [CPFX, ciprofloxacin, reference compound] has an MIC [1] of 0.05 µg/mL (≈ 0.151 µM), an MIC [2] of 0.2 µg/mL (≈ 0.604 µM) and an MIC (S. aureus Smith) of 0.39 µg/mL (≈ 1.18 µM). The MIC [3] was 0.2 µg/mL (≈ 0.604 µM), the MIC (S. epidermidis IID 866) was 0.2 µg/mL (≈ 0.604 µM) and the MIC [4] was 0.39 µg/mL (≈ 1.18 µM). The MIC [5] was 0.0063 µg/mL (≈ 0.019 µM), the MIC (E. coli ATCC 10536) was 0.0125 µg/mL (≈ 0.0377 µM) and the MIC (E. coli ML 4707) was 0.0125 µg/mL (≈ 0.0377 µM). For the same compound, the MIC [6] was 0.0125 µg/mL (≈ 0.0377 µM), the MIC (P. mirabilis IID 994) was 0.0125 µg/mL (≈ 0.0377 µM) and the MIC [7] was 0.025 µg/mL (≈ 0.0754 µM). For the same compound, the MIC [8] was 0.0125 µg/mL (≈ 0.0377 µM), the MIC (K. pneumoniae 1-220S) was 0.025 µg/mL (≈ 0.0754 µM) and the MIC [9] was 0.0063 µg/mL (≈ 0.019 µM). The MIC [10] was 0.025 µg/mL (≈ 0.0754 µM), the MIC (Shigella sonnei IID 969) was 0.0063 µg/mL (≈ 0.019 µM) and the MIC [11] was 0.025 µg/mL (≈ 0.0754 µM). It also gave an MIC (P. cepacia GIFU 518) of 0.39 µg/mL (≈ 1.18 µM), an MIC (P. maltophilia GIFU 2491) of 0.39 µg/mL (≈ 1.18 µM) and an MIC [12] of 0.025 µg/mL (≈ 0.0754 µM). The MIC [13] was 0.1 µg/mL (≈ 0.302 µM), the MIC [14] was 0.39 µg/mL (≈ 1.18 µM) and the MIC [15] was 6.25 µg/mL (≈ 18.9 µM). The MIC (B. fragilis 0558) was 3.13 µg/mL (≈ 9.45 µM), the MIC (B. fragilis 25285) was 3.13 µg/mL (≈ 9.45 µM) and the MIC (B. distasonis 8503) was 6.25 µg/mL (≈ 18.9 µM). For the same compound, the MIC [16] was > 12.5 µg/mL, the MIC (B. vulgatus KYA 29327) was > 12.5 µg/mL and the MIC [17] was 1.56 µg/mL (≈ 4.71 µM). The MIC [18] was 12.5 µg/mL (≈ 37.7 µM), the MIC [19] was 0.39 µg/mL (≈ 1.18 µM) and the MIC (C. perfringens KYA 13123) was 0.39 µg/mL (≈ 1.18 µM). The MIC (C. ramosum) was 12.5 µg/mL (≈ 37.7 µM), the MIC [20] was 1.56 µg/mL (≈ 4.71 µM) and the MIC (Pst. micros UPI 5464-1) was 0.2 µg/mL (≈ 0.604 µM). The MIC [21] was 0.2 µg/mL (≈ 0.604 µM).
